The record followed here is ChEMBL document CHEMBL3769401, “The first potent diphenyl phosphonate KLK4 inhibitors with unexpected binding kinetics” (Medchemcomm, 2015).

Active and inactive are the calls of the source. The calls are words filed in the database; no cut-off is given here.

Assay [1] addresses T1, Kallikrein-4 (Homo sapiens, UniProt Q9Y5K2). As to the kind of experiment: Inhibition of human recombinant KLK4 expressed in Escherichia coli using Bachem I-1120 as substrate preincubated for 15 mins followed by substrate addition by microplate reader analysis.
The target of another assay is T2, Kallikrein-2 (Homo sapiens, UniProt P20151).
T2 sequence (P20151 whole entry): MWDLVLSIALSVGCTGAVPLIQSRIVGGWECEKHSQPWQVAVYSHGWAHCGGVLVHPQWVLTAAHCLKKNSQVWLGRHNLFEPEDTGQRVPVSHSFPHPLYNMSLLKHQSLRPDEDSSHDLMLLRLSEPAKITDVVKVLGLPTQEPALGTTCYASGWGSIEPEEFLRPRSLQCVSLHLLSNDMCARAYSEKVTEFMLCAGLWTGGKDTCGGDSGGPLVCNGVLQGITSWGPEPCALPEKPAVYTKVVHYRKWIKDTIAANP
As to the kind of experiment: Inhibition of human recombinant KLK2 expressed in Escherichia coli using Bachem I-1295 as substrate preincubated for 15 mins followed by substrate addition by microplate reader analysis.

The next assay deals with Kallikrein-1 (Homo sapiens, UniProt P06870). As to the kind of experiment: Inhibition of human recombinant KLK1 expressed in Escherichia coli using Bachem I-1295 as substrate preincubated for 15 mins followed by substrate addition by microplate reader analysis.
Kallikrein-1, sequence (P06870 whole entry): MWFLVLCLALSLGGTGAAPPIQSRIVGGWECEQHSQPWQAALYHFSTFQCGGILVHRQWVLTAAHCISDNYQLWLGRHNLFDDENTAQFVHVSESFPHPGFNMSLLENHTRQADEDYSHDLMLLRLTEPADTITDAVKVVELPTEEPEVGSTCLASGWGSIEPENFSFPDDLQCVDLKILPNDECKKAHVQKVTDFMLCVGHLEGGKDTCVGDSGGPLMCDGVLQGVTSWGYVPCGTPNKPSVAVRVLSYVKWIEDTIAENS
For a further assay, the target named is T3, Kallikrein-8 (Homo sapiens, UniProt O60259).
T3 sequence (O60259 whole entry): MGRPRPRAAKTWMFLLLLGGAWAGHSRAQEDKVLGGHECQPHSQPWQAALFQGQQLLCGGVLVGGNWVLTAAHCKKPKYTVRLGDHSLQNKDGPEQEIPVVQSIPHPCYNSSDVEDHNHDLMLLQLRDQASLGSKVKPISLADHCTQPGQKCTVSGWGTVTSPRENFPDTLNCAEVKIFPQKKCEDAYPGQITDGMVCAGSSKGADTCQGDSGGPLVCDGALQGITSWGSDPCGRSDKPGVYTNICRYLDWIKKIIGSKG
The experiment in a line: Inhibition of human recombinant KLK8 expressed in Escherichia coli using Bachem I-1120 as substrate preincubated for 15 mins followed by substrate addition by microplate reader analysis.

Assay [2] deals with Urokinase-type plasminogen activator (Homo sapiens, UniProt P00749). The experiment in a line: Inhibition of recombinant uPA (unknown origin) using Biophen CS-61(44) as substrate.
Assay [3] has as its target Tissue-type plasminogen activator (Homo sapiens, UniProt P00750). The experiment in a line: Inhibition of recombinant tPA (unknown origin) using Biophen CS-05(88) as substrate.
Assay [4] concerns the target T4, Prothrombin (Homo sapiens, UniProt P00734). The experiment in a line: Inhibition of human plasma thrombin using Biophen CS-21(66) as substrate preincubated for 15 mins followed by substrate addition by microplate reader analysis. Format: cell-free.
Another assay deals with Plasminogen (Homo sapiens, UniProt P00747). The experiment in a line: Inhibition of human plasma plasmin using Biophen CS-21(66) as substrate. The assay is classed as cell-free.
Plasminogen, sequence (P00747 97-580 limits assumed): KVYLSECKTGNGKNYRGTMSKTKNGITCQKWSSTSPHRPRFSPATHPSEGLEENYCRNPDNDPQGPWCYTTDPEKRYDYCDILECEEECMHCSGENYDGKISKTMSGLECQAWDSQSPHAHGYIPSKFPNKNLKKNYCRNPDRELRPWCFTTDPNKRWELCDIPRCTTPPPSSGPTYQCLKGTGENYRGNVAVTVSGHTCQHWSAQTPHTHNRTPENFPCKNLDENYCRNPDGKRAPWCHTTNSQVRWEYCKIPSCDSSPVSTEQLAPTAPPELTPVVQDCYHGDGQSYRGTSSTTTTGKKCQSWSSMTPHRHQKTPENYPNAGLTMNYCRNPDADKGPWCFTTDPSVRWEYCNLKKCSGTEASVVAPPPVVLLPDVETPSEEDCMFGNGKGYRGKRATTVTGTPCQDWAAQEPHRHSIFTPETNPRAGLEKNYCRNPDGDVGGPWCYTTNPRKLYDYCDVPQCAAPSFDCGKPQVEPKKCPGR
Plasminogen, sequence (P00747 581-810 limits assumed): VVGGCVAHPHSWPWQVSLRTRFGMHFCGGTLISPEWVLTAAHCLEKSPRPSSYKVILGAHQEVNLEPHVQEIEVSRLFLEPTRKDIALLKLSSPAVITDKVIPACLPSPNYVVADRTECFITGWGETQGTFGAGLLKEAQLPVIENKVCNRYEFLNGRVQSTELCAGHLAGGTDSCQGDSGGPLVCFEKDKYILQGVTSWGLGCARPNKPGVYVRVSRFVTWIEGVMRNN
Another assay has as its target Coagulation factor X (Homo sapiens, UniProt P00742). As to the kind of experiment: Inhibition of factor 10a (unknown origin) using Biophen CS-11(32) as substrate.
The target of another assay is Acetylcholinesterase (Electrophorus electricus, UniProt O42275). As to the kind of experiment: Inhibition of Electrophorus electricus AChE using acetylthiocholine iodide as substrate by 5-5'-Dithiobis(2 nitrobenzoic acid)-based assay.
Acetylcholinesterase, sequence (O42275 whole entry): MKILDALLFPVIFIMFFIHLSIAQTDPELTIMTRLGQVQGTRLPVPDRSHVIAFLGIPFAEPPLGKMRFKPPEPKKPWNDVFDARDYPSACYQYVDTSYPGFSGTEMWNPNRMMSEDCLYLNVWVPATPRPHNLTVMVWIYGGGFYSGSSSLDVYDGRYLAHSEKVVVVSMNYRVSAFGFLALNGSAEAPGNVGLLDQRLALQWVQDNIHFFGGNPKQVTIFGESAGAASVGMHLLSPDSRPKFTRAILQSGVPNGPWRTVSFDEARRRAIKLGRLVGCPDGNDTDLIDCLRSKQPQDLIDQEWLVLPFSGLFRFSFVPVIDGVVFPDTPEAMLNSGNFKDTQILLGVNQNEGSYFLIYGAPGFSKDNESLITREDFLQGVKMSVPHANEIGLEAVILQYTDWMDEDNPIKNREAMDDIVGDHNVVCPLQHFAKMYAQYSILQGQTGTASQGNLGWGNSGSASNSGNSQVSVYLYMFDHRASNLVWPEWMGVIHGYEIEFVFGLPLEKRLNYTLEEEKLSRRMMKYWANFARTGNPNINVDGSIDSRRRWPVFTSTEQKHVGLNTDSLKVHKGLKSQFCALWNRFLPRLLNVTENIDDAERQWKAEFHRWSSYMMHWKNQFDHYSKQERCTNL
Assay [5] deals with T5, Kallikrein-2 (Homo sapiens) (UniProt P20151).
T5 sequence (whole entry): T2 sequence (P20151 whole entry)
As to the kind of experiment: Irreversible inhibition of human recombinant KLK2 expressed in Escherichia coli using H-Pro-Phe-Arg-AMC as fluorogenic substrate at 100 times IC50 preincubated for 15 mins followed by 100 fold dilution measured for 1 hr.

Assay [6] concerns the target T6, Kallikrein-8 (Homo sapiens) (UniProt O60259).
T6 sequence (whole entry): T3 sequence (O60259 whole entry)
The experiment in a line: Reversible inhibition of human recombinant KLK8 expressed in Escherichia coli using Boc-Val-Pro-Arg-AMC as fluorogenic substrate at 100 times IC50 preincubated for 15 mins followed by 100 fold dilution measured for 1 hr.

Assay [7] has as its target T1, Kallikrein-4. The experiment in a line: Reversible inhibition of human recombinant KLK4 expressed in Escherichia coli using Bachem I-1120 as fluorogenic substrate at 100 times IC50 preincubated for 15 mins followed by 100 fold dilution measured for 1 hr by microplate reader analysis.
For assay [8], the target named is T5, Kallikrein-2 (Homo sapiens). The experiment in a line: Reversible inhibition of human recombinant KLK2 expressed in Escherichia coli using H-Pro-Phe-Arg-AMC as fluorogenic substrate at 100 times IC50 preincubated for 15 mins followed by 100 fold dilution measured for 1 hr.
Assay [9] has as its target T4, Prothrombin. The experiment in a line: Reversible inhibition of human thrombin using Biophen CS-21(66) as substrate at 100 times IC50 preincubated for 15 mins followed by 100 fold dilution measured for 1 hr.

T1 sequence (Q9Y5K2 whole entry): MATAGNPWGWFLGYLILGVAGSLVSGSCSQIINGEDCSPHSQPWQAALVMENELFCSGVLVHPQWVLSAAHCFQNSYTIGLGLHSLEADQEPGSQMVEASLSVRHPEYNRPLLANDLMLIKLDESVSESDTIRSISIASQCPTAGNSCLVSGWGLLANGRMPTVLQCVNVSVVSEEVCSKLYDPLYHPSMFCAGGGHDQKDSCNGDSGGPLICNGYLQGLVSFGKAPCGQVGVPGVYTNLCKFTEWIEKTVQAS
Tissue-type plasminogen activator, sequence (P00750 whole entry): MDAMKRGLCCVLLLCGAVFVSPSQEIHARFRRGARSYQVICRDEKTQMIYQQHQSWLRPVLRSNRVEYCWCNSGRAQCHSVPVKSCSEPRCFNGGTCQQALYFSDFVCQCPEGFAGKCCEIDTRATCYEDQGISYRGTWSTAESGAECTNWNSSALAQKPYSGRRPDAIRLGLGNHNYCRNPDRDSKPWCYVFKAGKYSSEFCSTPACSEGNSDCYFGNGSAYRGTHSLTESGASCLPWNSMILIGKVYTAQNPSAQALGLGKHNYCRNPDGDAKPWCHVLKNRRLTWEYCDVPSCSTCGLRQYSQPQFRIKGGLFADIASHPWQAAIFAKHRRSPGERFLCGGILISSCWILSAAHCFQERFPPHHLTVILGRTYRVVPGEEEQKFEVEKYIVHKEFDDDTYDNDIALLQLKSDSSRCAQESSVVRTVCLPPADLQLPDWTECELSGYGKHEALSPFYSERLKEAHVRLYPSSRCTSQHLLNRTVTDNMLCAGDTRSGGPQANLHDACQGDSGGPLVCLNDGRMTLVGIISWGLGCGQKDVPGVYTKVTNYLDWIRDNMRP
Coagulation factor X, sequence (P00742 41-179 limits assumed): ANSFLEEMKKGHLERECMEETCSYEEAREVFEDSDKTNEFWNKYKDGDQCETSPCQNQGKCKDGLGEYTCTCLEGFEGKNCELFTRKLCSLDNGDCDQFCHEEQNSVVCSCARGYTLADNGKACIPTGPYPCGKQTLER
Coagulation factor X, sequence (P00742 235-488 limits assumed): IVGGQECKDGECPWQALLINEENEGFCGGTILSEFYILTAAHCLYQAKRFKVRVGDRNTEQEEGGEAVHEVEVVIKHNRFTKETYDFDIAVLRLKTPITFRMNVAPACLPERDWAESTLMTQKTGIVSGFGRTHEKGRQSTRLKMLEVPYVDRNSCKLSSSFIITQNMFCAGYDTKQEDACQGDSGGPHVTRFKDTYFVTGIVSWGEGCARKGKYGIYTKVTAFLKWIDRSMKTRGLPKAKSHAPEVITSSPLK

Turning to `N=C(N)Nc1ccc(CCP(=O)(Oc2ccccc2)Oc2ccccc2)cc1`, the IC50 at Kallikrein-4 [1] was 0.08 µM; at Kallikrein-2, 3.02 µM; at Kallikrein-1, above 2.5 µM; on Kallikrein-8, 0.17 µM; in assay [2], 0.0079 µM; in assay [3], above 10 µM. Besides, the IC50 on Prothrombin [4], against Plasminogen, against Coagulation factor X and on Acetylcholinesterase was above 10 µM throughout. For the same compound, the inhibition entry in [5] and in assay [6] was “Active” each time. Also, the “reversible inhibition (activity call)” value at Kallikrein-4 [7] was “Active”.
For the compound `N=C(N)Nc1ccc(CC(NC(=O)OCc2ccccc2)P(=O)(Oc2ccccc2)Oc2ccccc2)cc1` (centres undefined), the IC50 at Kallikrein-2 was 0.53 µM; on Kallikrein-1 it was above 10 µM; on Kallikrein-8 it was 0.17 µM; at Coagulation factor X, above 10 µM; at Acetylcholinesterase, above 20 µM. For the same compound, the inhibition result (in assay [8]; in assay [6]; on Prothrombin [9]) was “Active” throughout. For the same compound, the “reversible inhibition (activity call)” value at Kallikrein-4 [7] is “Active”.
As to `N=C(N)NCCCC(NC(=O)OCc1ccccc1)P(=O)(Oc1ccccc1)Oc1ccccc1` (centres undefined), the IC50 on Kallikrein-4 [1] was 0.04 µM; on Kallikrein-2 it was above 2.5 µM; on Kallikrein-1 it was 0.82 µM; at Kallikrein-8 it was 0.125 µM; against Prothrombin [4] it was 0.8 µM; at Coagulation factor X, above 10 µM. The same compound had an IC50 at Acetylcholinesterase above 10 µM. Also, the inhibition result at Prothrombin [9] is “Active”. At Kallikrein-4 [7], the “reversible inhibition (activity call)” value is “Active”.
Take `N=C(N)Nc1ccc(CP(=O)(Oc2ccccc2)Oc2ccccc2)cc1`: the IC50 is 0.25 µM at Kallikrein-4 [1]; 2.44 µM on Kallikrein-2; above 2.5 µM on Kallikrein-1; 1.44 µM at Kallikrein-8; 1.4 µM in [2]; above 10 µM in assay [3]. Besides, the IC50 against Prothrombin [4], on Plasminogen, on Coagulation factor X and on Acetylcholinesterase was above 10 µM throughout. Moreover, the inhibition result in assay [5] and in assay [6] was “Active” in each case. In addition, the “reversible inhibition (activity call)” value at Kallikrein-4 [7] is “Active”.
As to `N=C(N)c1ccc(CCC(NC(=O)OCc2ccccc2)P(=O)(Oc2ccccc2)Oc2ccccc2)cc1` (centres undefined), the IC50 is 0.015 µM at Kallikrein-4 [1]; 0.72 µM on Kallikrein-2; 1.37 µM on Kallikrein-1; 5 µM on Kallikrein-8; above 20 µM against Acetylcholinesterase. In addition, the inhibition entry in [8] is “Active”. For the same compound, at Kallikrein-4 [7], the “reversible inhibition (activity call)” value is “Active”.
Regarding `Nc1ccc(CC(NC(=O)OCc2ccccc2)P(=O)(Oc2ccccc2)Oc2ccccc2)cc1` (centres undefined), the IC50 on Kallikrein-4 [1] was above 10 µM; on Kallikrein-2 it was above 10 µM; on Kallikrein-1, above 10 µM; at Kallikrein-8, above 10 µM; in [2] it was 19.8 µM; in assay [3], 32 µM. Moreover, the results for the IC50 at Prothrombin [4] and against Coagulation factor X were 62 µM and above 10 µM, respectively.
For the compound `NCCCC(NC(=O)OCc1ccccc1)P(=O)(Oc1ccccc1)Oc1ccccc1` (centres undefined), the half-maximal inhibitory concentration (IC50) is above 2.5 µM at Kallikrein-4 [1]; above 2.5 µM on Kallikrein-2; above 10 µM at Kallikrein-1; above 10 µM on Kallikrein-8; above 250 µM in assay [2]; above 2.5 µM in assay [3]. For the same compound, the IC50 against Prothrombin [4] is above 2.5 µM; against Plasminogen it was above 250 µM; against Coagulation factor X it was above 250 µM; against Acetylcholinesterase, above 10 µM.
For the compound `Nc1ccc(C(NC(=O)OCc2ccccc2)P(=O)(Oc2ccccc2)Oc2ccccc2)cc1` (centres undefined), the 50% inhibitory concentration (IC50) was above 10 µM on Kallikrein-4 [1]; above 2.5 µM on Kallikrein-2; above 10 µM on Kallikrein-1; above 10 µM at Kallikrein-8; above 10 µM in assay [2]; above 10 µM in assay [3]. For the same compound, the IC50 on Prothrombin [4], against Plasminogen, against Coagulation factor X and against Acetylcholinesterase was above 10 µM throughout.

For orientation: IC50 means the midpoint of a concentration-inhibition curve.
